What was measured:
Assay in all cases: relative viability (nuclei count vs DMSO), 5 days (fraction); higher = more cells survive
[1] = compound: Cn1cc(-c2cnn3c(N)c(Br)c([C@@H]4CCCNC4)nc23)cn1 + O=C(CCCCCCC(=O)Nc1ccccc1)NO [Vorinostat] (partner 1 µM)
How it was run: (§1)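 Lung cancer cell lines, seeded in 1536-well plates, were treated the following day by pin tool with a single drug or with five library-drug doses (not always all listed) in √10 steps on top of a fixed anchor-drug dose. Cells were fixed and nuclei stained in one step after 5 days, and nuclei were counted. Relative viability is the nuclei count for treated wells divided by that for vehicle wells, reported as medians of duplicate plates.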

[2] = compound: Cn1cc(-c2cnn3c(N)c(Br)c([C@@H]4CCCNC4)nc23)cn1 + Cc1nc(Nc2ncc(C(=O)Nc3c(C)cccc3Cl)s2)cc(N2CCN(CCO)CC2)n1 [Dasatinib] (partner 0.075 µM)
How it was run: as §1

[3] = compound: Cn1cc(-c2cnn3c(N)c(Br)c([C@@H]4CCCNC4)nc23)cn1 + CS(=O)(=O)N1CCN(Cc2cc3nc(-c4cccc5[nH]ncc45)nc(N4CCOCC4)c3s2)CC1 [Pictilisib] (partner 1 µM)
How it was run: as §1

[4] = compound: Cn1cc(-c2cnn3c(N)c(Br)c([C@@H]4CCCNC4)nc23)cn1 + C[C@@H](Oc1cc(-c2cnn(C3CCNCC3)c2)cnc1N)c1c(Cl)ccc(F)c1Cl [Crizotinib] (partner 1 µM)
How it was run: as §1

Row | Cell Line | relative viability ([1]; first compound 0.05 µM) | relative viability ([1]; first compound 0.1581 µM) | relative viability ([1]; first compound 0.5 µM) | relative viability ([1]; first compound 1.581 µM) | relative viability ([1]; first compound 5 µM) | relative viability ([2]; first compound 0.05 µM) | relative viability ([2]; first compound 0.1581 µM) | relative viability ([2]; first compound 0.5 µM) | relative viability ([2]; first compound 1.581 µM) | relative viability ([2]; first compound 5 µM) | relative viability ([3]; first compound 0.05 µM) | relative viability ([3]; first compound 0.1581 µM) | relative viability ([3]; first compound 0.5 µM) | relative viability ([3]; first compound 1.581 µM) | relative viability ([3]; first compound 5 µM) | relative viability ([4]; first compound 0.05 µM) | relative viability ([4]; first compound 0.1581 µM) | relative viability ([4]; first compound 0.5 µM) | relative viability ([4]; first compound 1.581 µM) | relative viability ([4]; first compound 5 µM)
1 | NCI-H23 | 0.547 | 0.508 | 0.424 | 0.206 | 0.125 | 0.851 | 0.999 | 0.687 | 0.585 | 0.18 | 0.576 | 0.506 | 0.395 | 0.313 | 0.198 | 0.444 | 0.534 | 0.437 | 0.322 | 0.183
2 | NCI-H322M | 0.871 | 0.831 | 0.754 | 0.626 | 0.394 | 0.268 | 0.279 | 0.268 | 0.231 | 0.245 | 0.542 | 0.5 | 0.421 | 0.475 | 0.377 | 0.874 | 0.962 | 0.884 | 0.785 | 0.576
3 | NCI-H358 | 0.748 | 0.732 | 0.422 | 0.455 | 0.302 | 0.131 | 0.155 | 0.156 | 0.167 | 0.148 | 0.314 | 0.346 | 0.309 | 0.352 | 0.304 | 0.586 | 0.575 | 0.375 | 0.655 | 0.339
4 | NCI-H441 | 0.759 | 0.896 | 0.721 | 0.429 | 0.326 | 0.589 | 0.736 | 0.476 | 0.487 | 0.601 | 0.669 | 0.56 | 0.478 | 0.527 | 0.46 | 0.639 | 1.24 | 0.648 | 0.703 | 0.709
5 | NCI-H460 | 0.926 | 1.1 | 0.245 | 0.405 | 0.111 | 0.533 | 0.437 | 0.483 | 0.317 | 0.144 | 0.363 | 0.394 | 0.357 | 0.314 | 0.125 | 1.01 | 1.36 | 1.03 | 0.842 | 0.3
6 | NCI-H520 | 0.681 | 0.676 | 0.702 | 0.467 | 0.446 | 0.178 | 0.258 | 0.191 | 0.176 | 0.165 | 0.266 | 0.318 | 0.283 | 0.208 | 0.267 | 0.743 | 0.821 | 0.694 | 0.601 | 0.589
7 | NCI-H596 | 0.517 | 0.602 | 0.624 | 0.356 | 0.455 | 0.668 | 0.549 | 0.552 | 0.545 | 0.589 | 0.386 | 0.401 | 0.427 | 0.362 | 0.413 | 0.943 | 1.01 | 1.05 | 0.906 | 0.953
8 | NCI-H647 | 0.625 | 0.607 | 0.522 | 0.256 | 0.15 | 0.212 | 0.326 | 0.143 | 0.12 | 0.123 | 0.485 | 0.409 | 0.368 | 0.291 | 0.341 | 1.27 | 1.33 | 0.883 | 0.675 | 0.232
